According to US20120077803A1, “Uses Of NK Receptor Antagonists” (NOVARTIS AG, priority 2009, published 2012):

Experiments:
[1] = system: dogs with flea allergic dermatitis; test: Pruritus intensity by Actical activity monitors in flea allergic dogs; assay type: in vivo, Beagle dogs; details: Prednisolone 10 mg/day orally; for Actical day, mean (standard deviation): 6am-6pm; for Actical night, mean (standard deviation): 6pm-6am
Method: (§1) Flea-allergic laboratory Beagle dogs are infested with fleas. Fifty (50) Ctenocephalides felis fleas, 18 to 20 days old are released on the back of every dog on D1. Dogs are combed 48 hours (D3) after infestation to reduce the number of fleas (reduction of allergen charge).
Pruritus intensity: Pruritus intensity is evaluated using activity monitors (Actical™: Actiwatch™; Cambridge Neuorotechnology Ltd, Papworth Everard, UK) according to Nuttall and McEwan. (Nuttal T and McEwan N, “Objective measurement of pruritus in dogs: a preliminary study using activity monitors”. ESVD, 2006, 17 348-351). The physical activity monitors, mounted on collars, are placed around the dog's neck and tightened to the extent that they more with the skin but not so that they compress the underlying tissues. They were put on the dogs on D −5. […] This typically allows to see the difference in activity when the dogs have fleas and are developing pruritic and inflammatory lesions (i.e. dermatitis) and then again their activity during treatment with either the Test Compound or Prednisolone. The activity monitors are typically removed at the end of each phase on D12. Activity monitors measure the movement average within 15 seconds,
(§2) Skin lesions are allowed to develop until the total lesion score reaches ˜20. The Test Compound is then given orally at 50, 150 and 300 mg/day, divided into 2 doses, for 5 days. Prednisolone (10 mg/day, orally) is used as a comparator.
(§3) Lesion scores and Actical™ measurement values are typically observed on the following days: • Pre-value: before challenge with fleas • the day of challenge with fleas (Actical™ measurements only); • D1: the day when the total lesion score reached a sufficiently high value (average lesion score 20) and treatment of the animal started. • D2 to D6,
(§4) In the treatment group, lesion scores were taken from 8 dogs. Actical™ measurements were also taken from 6 of these dogs.

[2] = system: dogs with flea allergic dermatitis; test: Skin lesion scores (total lesion score) in dogs with flea-allergic dermatitis; assay type: in vivo, Beagle dogs; details: Prednisolone 10 mg/day orally
Method: as §1
Skin observations: before flea infestations (D −1) all dogs are typically examined to establish a baseline score for erythema, papules, crusts, scales, alopecia, and excoriation. From D1, daily clinical observations are performed. Each lesion is typically graded using a scale from 0 to 3:
0=no signs 1=mild 2=moderate 3=severe
as §2
Erythema: is typically an acute clinical sign of cutaneous inflammation defined as redness of the skin caused by capillary congestion which can be aggravated by scratching. Excoriation: is typically a punctuate or linear abrasion produced by mechanical means, usually involving only the epidermis but not uncommonly reaching the papillary dermis. […] Papule: is typically a circumscribed, solid elevation with no visible fluid, varying in size from a pinhead to 1 cm. […], formed when there is a high break in the follicle wall. In the presence of bacteria, papules become pustules. Crusts: are typically dried serum, pus, or blood usually mixed with epithelial and sometimes bacterial debris. Scales: are dry or greasy laminated masses of keratin.
as §3, §4
• Erythema*, • Excoriations*, • Papules/pustules • Self induced alopecia^o, and • Scales, • Erythema and excoriations are related to pruritus • Self induced alopecia is also related to pruritus but the improvement is […] after several weeks of treatment.
Day 1 of treatment when dogs reached a sufficient lesion score to initiate treatment (average 20). Pre-values (baseline).

C[C@]12C=CC(=O)C=C1CC[C@@H]1[C@@H]2[C@@H](O)C[C@@]2(C)[C@H]1CC[C@]2(O)C(=O)CO [Prednisolone, reference compound]
Actical day, mean (standard deviation) ([1]; day 1 (treatment start)): 74 (20) Average activity counts every 15 secs | Actical day, mean (standard deviation) ([1]; day 2): 66 (50) Average activity counts every 15 secs | Actical day, mean (standard deviation) ([1]; day 3): 49 (33) Average activity counts every 15 secs | Actical day, mean (standard deviation) ([1]; day 4): 54 (22) Average activity counts every 15 secs | Actical day, mean (standard deviation) ([1]; day 5): 47 (24) Average activity counts every 15 secs | Actical day, mean (standard deviation) ([1]; day 6): 41 (14) Average activity counts every 15 secs | Actical day, mean (standard deviation) ([1]; fleas (day of challenge)): 74 (22) Average activity counts every 15 secs | Actical day, mean (standard deviation) ([1]; pre (before exposure to fleas)): 40 (10) Average activity counts every 15 secs | Actical night, mean (standard deviation) ([1]; Fleas (day of challenge)): 8.6 (3.5) Average activity counts every 15 secs | Actical night, mean (standard deviation) ([1]; Pre (before exposure to fleas)): 7.9 (4.4) Average activity counts every 15 secs | Actical night, mean (standard deviation) ([1]; day 1 (treatment start)): 16.2 (2.9) Average activity counts every 15 secs | Actical night, mean (standard deviation) ([1]; day 2): 6.8 (4.1) Average activity counts every 15 secs | Actical night, mean (standard deviation) ([1]; day 3): 5.1 (2.8) Average activity counts every 15 secs | Actical night, mean (standard deviation) ([1]; day 4): 7.3 (3.3) Average activity counts every 15 secs | Actical night, mean (standard deviation) ([1]; day 5): 4.8 (2.2) Average activity counts every 15 secs | Actical night, mean (standard deviation) ([1]; day 6): 5.3 (1.7) Average activity counts every 15 secs | Total score ctb (total lesion score compared to baseline), mean (standard deviation) ([2]; day 2): −5.6 (6.3) | Total score ctb (total lesion score compared to baseline), mean (standard deviation) ([2]; day 3): −7.9 (6.7) | Total score ctb (total lesion score compared to baseline), mean (standard deviation) ([2]; day 4): −9.2 (6.3) | Total score ctb (total lesion score compared to baseline), mean (standard deviation) ([2]; day 5): −9.9 (4.8) | Total score ctb (total lesion score compared to baseline), mean (standard deviation) ([2]; day 6): −11.8 (6.1)
